Data reported in patent publication EP1477475A1, “Compounds for use as a medicine increasing the contractility of a heart, a heart muscle or cells of a heart muscle” (Procorde GmbH, priority 2003, dated 2004).
“Also recorded” adds a separate entry of the source.

Columns and labels:
[1] = tested on: Gβγ-dependent activity of G protein-coupled receptor kinase 2 (GRK-2); experiment: Rhodopsin phosphorylation assay (Gβγ-dependent GRK-2 activity); assay type: biochemical, bovine
Protocol: All substances derived from the virtual screen were tested for their ability to inhibit the Gβγ-dependent activity of G protein-coupled receptor kinase 2 (GRK-2) in a rhodopsin phosphorylation assay. Stock solutions of 10mM of all compounds were dissolved in DMSO, for all assays (in vitro and cellular) DMSO was added in the same amount to the respective control group. The initial compound screen was carried out in a 96 well plate formate. The assay mix contained 15µM ATP, 10mM MgCl2, 20nM Gβγ (from bovine brain), 60nM GRK-2(purified from baculoviral culture), ^32P-ATP (approximately 200.000 cpm/assay point) and 10µM of the respective compound in 50µl assay buffer (20mM Hepes pH 7.2, 2mM EDTA); 600nM rhodopsin (purified from bovine retina) was added in the dark. Stimulation was achieved by incubation for 10-15 min under yellow light. Subsequently, the mix was aspirated with a cell harvester and applied onto a glass-fiber membrane (GF/C); then, the assay plate was washed 10 times with 10ml assay buffer each. The membrane was counted in a Wallac counter (Cerenkov). Additionally, 45µl of the assay mix were counted to determine the total amount of radioactivity in the assay. […]
To test the ability of the compounds to inhibit Gβγ-dependent signalling a rhodopsin phosphorylation assay may be used. […] The effect of different compound concentrations may be determined in the same assay. […]

[2] = tested on: isolated rabbit cardiomyocytes; experiment: Measurement of cell shortening of isolated cardiomyocytes; assay type: cell-based; conditions: Figure 10; 10 µM COM1 for 10 minutes, then isoproterenol 1x10^-9 - 1x10^-7M; n = 8 cells per group
Protocol: Female New Zealand White rabbits (12 weeks old) were anesthesized with thiopental (75-1 00mg/kg) and 500 U heparin were injected intravenously. The thorax was opened and the heart was excised and put into ice-cold NaCl solution (0.9%). Fat and pericardium were removed. The aorta was attached to a perfusion system connected to a pump and the heart was retrogradely pefused at a flow rate of 20-40 ml/min with oxygenated (95% oxygen, 5% CO2) Powell medium (110mM NaCl, 2.5mM KCI, KH2PO4 1.2 mM, MgSO4 1.2 mM, NaHCO3 25 mM, Glucose 11 mM; pH 7.4) until all blood was washed out. […]
Cell shortening was measured with an electro-optical monitoring system connected to an online digitalized assessment of amplitude and velocity of shortening and relaxation (Scientific Instruments). […] Cell shortening was monitored using an edge detection camera and the data were transferred to a computer and fractional shortening was calculated for a single cell.
Overexpression of proteins which can bind Gβγ subunits, such as phosducin or the C-terminus of GRK-2, result in an increased contractility of cardiomyocytes. Therefore, the compounds' effects on this important parameter were determined. In isolated rabbit cardiomyocytes, basal, compound-incubated and isoproterenol- stimulated contractility were measured and expressed as fractional shortening of the single cell.

[3] = tested on: native M1 receptor in HEK 293 cells; experiment: Calcium measurements (Fura-2) in HEK 293 cells after carbachol (Gq-coupled pathway); assay type: cell-based; conditions: Figure 8; 30 µM compound, 30 minutes pre-incubation; 100 µM carbachol

Row | Reversal of inhibition of Gβγ-dependent GRK-2 activity by increasing concentrations of the substrate rhodopsin ([1]; Figure 4, GRK-2 50 nM, COM1 30 µM, rhodopsin 10-3000 nM) | Compound | Isoproterenol-stimulated contractility (fractional shortening, contraction amplitude) [2] | Effect of increasing concentrations of Gβγ on the inhibition of GRK-2-mediated phosphorylation of rhodopsin ([1]; Figure 3, COM2 3µM, GRK-2 50nM, rhodopsin 100nM, Gβγ 3 to 1000 nM, result at 1000 nM Gβγ) | Calcium release mediated via the Gq-coupled pathway [3]
1 | can be reversed | O=C(Nc1ccc(-c2ccc(NC(=O)c3ccc(F)cc3)c(C(=O)O)c2)cc1C(=O)O)c1ccc(F)cc1 [COM1, 4,4'-bis[(4-fluorobenzoyl)amino][1,1'-biphenyl]-3,3'-dicarboxylic acid] | positive inotropic effect |  | 
2 |  | O=C(Nc1ccccc1C(=O)O)c1ccc2c(c1)C(=O)N(c1ccc(Oc3ccc(N4C(=O)c5ccc(C(=O)Nc6ccccc6C(=O)O)cc5C4=O)cc3)cc1)C2=O [COM2, 2-[({2-[4-(4-{5-[(2-carboxyanilino)carbonyl]-1,3-dioxo-1,3-dihydro-2H-isoindol-2-yl}phenoxy)phenyl]-1,3-dioxo-2,3-dihydro-1H-isoindol-5-yl}carbonyl)amino]benzoic acid] |  | completely blunted; also recorded: completely reversed | does not have an effect
3 |  | O=C(C=Cc1ccco1)Nc1ccc(-c2ccc(NC(=O)C=Cc3ccco3)c(C(=O)O)c2)cc1C(=O)O [COM3, 4,4'-bis{[3-(2-furyl)acryloyl]amino}[1,1'-biphenyl]-3,3'-dicarboxylic acid] |  |  | displays an inhibitory potential
